Assay results from ChEMBL document CHEMBL1649565, “Besifloxacin, a novel fluoroquinolone, has broad-spectrum in vitro activity against aerobic and anaerobic bacteria” (Antimicrob Agents Chemother, 2009).
≈ marks a conversion by molar mass, not a printed value.

Columns and labels:
Assay type in all cases: functional
Peptostreptococcus sp. [1] = test: Antibacterial activity against Peptostreptococcus sp. assessed as percent susceptible isolates by CLSI M11-A7 method
Peptostreptococcus sp. [2] = test: Antibacterial activity against Peptostreptococcus sp. by CLSI M11-A7 method
Bacteroides fragilis [3] = test: Antibacterial activity against Bacteroides fragilis by CLSI M11-A7 method
Bacteroides fragilis [4] = test: Antibacterial activity against Bacteroides fragilis assessed as percent susceptible isolates by CLSI M11-A7 method
Prevotella sp. [5] = test: Antibacterial activity against Prevotella sp. by CLSI M11-A7 method
Fusobacterium sp. [6] = test: Antibacterial activity against Fusobacterium sp. by CLSI M11-A7 method
Clostridium perfringens = test: Antibacterial activity against Clostridium perfringens by CLSI M11-A7 method
Prevotella sp. [7] = test: Antibacterial activity against Prevotella sp. assessed as percent susceptible isolates by CLSI M11-A7 method
Fusobacterium sp. [8] = test: Antibacterial activity against Fusobacterium sp. assessed as percent susceptible isolates by CLSI M11-A7 method
Cutibacterium acnes [9] = test: Antibacterial activity against Propionibacterium acnes by CLSI M11-A7 method
Cutibacterium acnes [10] = test: Antibacterial activity against Propionibacterium acnes assessed as percent susceptible isolates by CLSI M11-A7 method
Acinetobacter baumannii [11] = test: Antibacterial activity against Acinetobacter baumannii by CLSI M7-A7 method
Klebsiella aerogenes [12] = test: Antibacterial activity against Enterobacter aerogenes by CLSI M7-A7 method
Proteus mirabilis [13] = test: Antibacterial activity against Proteus mirabilis assessed as percent susceptible isolates by CLSI M7-A7 method
Enterobacter cloacae [14] = test: Antibacterial activity against Enterobacter cloacae assessed as percent susceptible isolates by CLSI M7-A7 method
[15] = test system: Stenotrophomonas maltophilia; test: Antibacterial activity against levofloxacin-susceptible Stenotrophomonas maltophilia by CLSI M7-A7 method
Pseudomonas aeruginosa [16] = test: Antibacterial activity against ciprofloxacin-susceptible Pseudomonas aeruginosa assessed as percent susceptible isolates by CLSI M7-A7 method
Proteus mirabilis [17] = test: Antibacterial activity against Proteus mirabilis by CLSI M7-A7 method
Proteus vulgaris [18] = test: Antibacterial activity against Proteus vulgaris assessed as percent susceptible isolates by CLSI M7-A7 method
Pseudomonas aeruginosa [19] = test: Antibacterial activity against ciprofloxacin-susceptible Pseudomonas aeruginosa by CLSI M7-A7 method
[20] = test system: Acinetobacter calcoaceticus; test: Antibacterial activity against Acinetobacter calcoaceticus assessed as percent susceptible isolates by CLSI M7-A7 method
Klebsiella pneumoniae [21] = test: Antibacterial activity against Klebsiella pneumoniae assessed as percent susceptible isolates by CLSI M7-A7 method
Serratia marcescens [22] = test: Antibacterial activity against Serratia marcescens by CLSI M7-A7 method
Acinetobacter lwoffii [23] = test: Antibacterial activity against Acinetobacter lwoffii assessed as percent susceptible isolates by CLSI M7-A7 method
Klebsiella aerogenes [24] = test: Antibacterial activity against Enterobacter aerogenes assessed as percent susceptible isolates by CLSI M7-A7 method
Pseudomonas aeruginosa [25] = test: Antibacterial activity against non-ciprofloxacin-susceptible Pseudomonas aeruginosa by CLSI M7-A7 method
Serratia marcescens [26] = test: Antibacterial activity against levofloxacin susceptible Serratia marcescens assessed as percent susceptible isolates by CLSI M7-A7 method
Acinetobacter lwoffii [27] = test: Antibacterial activity against Acinetobacter lwoffii by CLSI M7-A7 method
[28] = test system: Stenotrophomonas maltophilia; test: Antibacterial activity against levofloxacin-susceptible Stenotrophomonas maltophilia assessed as assessed as percent susceptible isolates by CLSI M7-A7 method
[29] = test system: Stenotrophomonas maltophilia; test: Antibacterial activity against non-levofloxacin susceptible Stenotrophomonas maltophilia assessed as percent susceptible isolates by CLSI M7-A7 method
Citrobacter freundii [30] = test: Antibacterial activity against Citrobacter freundii assessed as percent susceptible isolates by CLSI M7-A7 method
Pseudomonas aeruginosa [31] = test: Antibacterial activity against non-ciprofloxacin-susceptible Pseudomonas aeruginosa assessed as percent susceptible isolates by CLSI M7-A7 method
[32] = test system: Acinetobacter calcoaceticus; test: Antibacterial activity against Acinetobacter calcoaceticus by CLSI M7-A7 method
Proteus vulgaris [33] = test: Antibacterial activity against Proteus vulgaris by CLSI M7-A7 method
[34] = test system: Stenotrophomonas maltophilia; test: Antibacterial activity against non-levofloxacin susceptible Stenotrophomonas maltophilia by CLSI M7-A7 method
Acinetobacter baumannii [35] = test: Antibacterial activity against Acinetobacter baumannii assessed as percent susceptible isolates by CLSI M7-A7 method
Enterobacter cloacae [36] = test: Antibacterial activity against Enterobacter cloacae by CLSI M7-A7 method
Klebsiella pneumoniae [37] = test: Antibacterial activity against Klebsiella pneumoniae by CLSI M7-A7 method
Citrobacter freundii [38] = test: Antibacterial activity against Citrobacter freundii by CLSI M7-A7 method

**Q.** With CCC[C@@H]1C[C@@H](C(=O)N[C@@H]([C@H]2O[C@H](SC)[C@H](O)[C@@H](O)[C@H]2O)[C@H](C)Cl)N(C)C1 [CLINDAMYCIN] as the compound, how does the Activity (Peptostreptococcus sp. [1]) read?
**A.** 88.5%

**Q.** And the MIC50 (Peptostreptococcus sp. [2])?
**A.** 0.25 µg/mL (≈ 0.588 µM)

**Q.** What about the MIC90 (Peptostreptococcus sp. [2]) of the same compound?
**A.** > 8 µg/mL

**Q.** What about the MIC50 (Bacteroides fragilis [3]) of the same compound?
**A.** 2 µg/mL (≈ 4.71 µM)

**Q.** And the MIC90 (Bacteroides fragilis [3])?
**A.** > 8 µg/mL

**Q.** What about the Activity (Bacteroides fragilis [4]) of the same compound?
**A.** 65%

**Q.** And the MIC (Prevotella sp. [5])?
**A.** ≤ 0.03 µg/mL

**Q.** And the MIC50 (Prevotella sp. [5])?
**A.** ≤ 0.03 µg/mL

**Q.** What about the MIC90 (Prevotella sp. [5]) of the same compound?
**A.** > 8 µg/mL

**Q.** And the MIC (Fusobacterium sp. [6])?
**A.** 0.06 µg/mL (≈ 0.141 µM)

**Q.** And the MIC50 (Fusobacterium sp. [6])?
**A.** 0.06 µg/mL (≈ 0.141 µM)

**Q.** And the MIC90 (Fusobacterium sp. [6])?
**A.** 2 µg/mL (≈ 4.71 µM)

**Q.** What about the MIC50 (Clostridium perfringens) of the same compound?
**A.** 2 µg/mL (≈ 4.71 µM)

**Q.** And the MIC90 (Clostridium perfringens)?
**A.** 4 µg/mL (≈ 9.41 µM)

**Q.** What about the Activity (Prevotella sp. [7]) of the same compound?
**A.** 85%

**Q.** And the Activity (Fusobacterium sp. [8])?
**A.** 95.2%

**Q.** And the MIC50 (Cutibacterium acnes [9])?
**A.** 0.06 µg/mL (≈ 0.141 µM)

**Q.** And the MIC90 (Cutibacterium acnes [9])?
**A.** 0.12 µg/mL (≈ 0.282 µM)

**Q.** And the Activity (Cutibacterium acnes [10])?
**A.** 100%

**Q.** For C[C@@H](O)[C@H]1C(=O)N2C(C(=O)O)=C(SCCNC=N)C[C@H]12 [IMIPENEM ANHYDROUS], which MIC50 (Acinetobacter baumannii [11]) is on record?
**A.** 2 µg/mL (≈ 6.68 µM)

**Q.** What about the MIC90 (Acinetobacter baumannii [11]) of the same compound?
**A.** > 8 µg/mL

**Q.** And the MIC50 (Klebsiella aerogenes [12])?
**A.** 0.5 µg/mL (≈ 1.67 µM)

**Q.** What about the MIC90 (Klebsiella aerogenes [12]) of the same compound?
**A.** 1 µg/mL (≈ 3.34 µM)

**Q.** What about the Activity (Proteus mirabilis [13]) of the same compound?
**A.** 92%

**Q.** What about the Activity (Enterobacter cloacae [14]) of the same compound?
**A.** 88%

**Q.** And the MIC [15]?
**A.** 0.25 µg/mL (≈ 0.835 µM)

**Q.** What about the Activity (Pseudomonas aeruginosa [16]) of the same compound?
**A.** 97.1%

**Q.** What about the MIC50 (Proteus mirabilis [17]) of the same compound?
**A.** 1 µg/mL (≈ 3.34 µM)

**Q.** And the MIC90 (Proteus mirabilis [17])?
**A.** 2 µg/mL (≈ 6.68 µM)

**Q.** And the Activity (Proteus vulgaris [18])?
**A.** 98%

**Q.** And the MIC50 (Pseudomonas aeruginosa [19])?
**A.** 0.5 µg/mL (≈ 1.67 µM)

**Q.** And the MIC90 (Pseudomonas aeruginosa [19])?
**A.** 1 µg/mL (≈ 3.34 µM)

**Q.** And the Activity [20]?
**A.** 77.8%

**Q.** What about the Activity (Klebsiella pneumoniae [21]) of the same compound?
**A.** 93%

**Q.** What about the MIC50 (Serratia marcescens [22]) of the same compound?
**A.** 2 µg/mL (≈ 6.68 µM)

**Q.** And the MIC90 (Serratia marcescens [22])?
**A.** 4 µg/mL (≈ 13.4 µM)

**Q.** What about the Activity (Acinetobacter lwoffii [23]) of the same compound?
**A.** 86%

**Q.** And the Activity (Klebsiella aerogenes [24])?
**A.** 88%

**Q.** What about the MIC50 (Pseudomonas aeruginosa [25]) of the same compound?
**A.** 1 µg/mL (≈ 3.34 µM)

**Q.** And the MIC90 (Pseudomonas aeruginosa [25])?
**A.** > 64 µg/mL

**Q.** And the Activity (Serratia marcescens [26])?
**A.** 91%

**Q.** What about the MIC50 (Acinetobacter lwoffii [27]) of the same compound?
**A.** 0.25 µg/mL (≈ 0.835 µM)

**Q.** What about the MIC90 (Acinetobacter lwoffii [27]) of the same compound?
**A.** 8 µg/mL (≈ 26.7 µM)

**Q.** What about the Activity [28] of the same compound?
**A.** 38.5%

**Q.** What about the Activity [29] of the same compound?
**A.** 22.9%

**Q.** And the Activity (Citrobacter freundii [30])?
**A.** 87%

**Q.** And the Activity (Pseudomonas aeruginosa [31])?
**A.** 64.6%

**Q.** And the MIC50 [32]?
**A.** 1 µg/mL (≈ 3.34 µM)

**Q.** And the MIC90 [32]?
**A.** > 64 µg/mL

**Q.** What about the MIC50 (Proteus vulgaris [33]) of the same compound?
**A.** 1 µg/mL (≈ 3.34 µM)

**Q.** What about the MIC90 (Proteus vulgaris [33]) of the same compound?
**A.** 2 µg/mL (≈ 6.68 µM)

**Q.** What about the MIC [34] of the same compound?
**A.** 1 µg/mL (≈ 3.34 µM)

**Q.** And the Activity (Acinetobacter baumannii [35])?
**A.** 54.7%

**Q.** What about the MIC50 (Enterobacter cloacae [36]) of the same compound?
**A.** 0.5 µg/mL (≈ 1.67 µM)

**Q.** What about the MIC90 (Enterobacter cloacae [36]) of the same compound?
**A.** 8 µg/mL (≈ 26.7 µM)

**Q.** And the MIC50 (Klebsiella pneumoniae [37])?
**A.** 0.25 µg/mL (≈ 0.835 µM)

**Q.** What about the MIC90 (Klebsiella pneumoniae [37]) of the same compound?
**A.** 0.5 µg/mL (≈ 1.67 µM)

**Q.** What about the MIC50 (Citrobacter freundii [38]) of the same compound?
**A.** 0.5 µg/mL (≈ 1.67 µM)

**Q.** What about the MIC90 (Citrobacter freundii [38]) of the same compound?
**A.** 8 µg/mL (≈ 26.7 µM)
